The text below walks through data of PMC12752627, “Discovery of a Potent and Selective TEAD Degrader with Durable Degradation Activity” (Advanced Science, 2025).

In general, EC50 refers to the midpoint of the concentration-response curve. By DC50 is commonly meant the concentration giving 50% degradation. Low values mean a more potent degrader, high ones a less potent degrader. What is called Dmax is the greatest extent of degradation seen. Lower therefore signals shallow degradation. Usually AUC(0-inf) stands for the area under the concentration-time curve extrapolated to infinity. The AUC(0-t) is exposure summed from dosing to a finite time, without extrapolation to infinity. A high value points to more exposure. As usually defined, the Cmax is the maximum level reached in the sampled fluid or tissue. What is called MRT inf is the average time that molecules of a dose stay in the body. The term Tmax denotes the time from dosing to the highest level. In general, half-life refers to the time in which the quantity being followed falls by half. A word on the bioavailability: it is the share of a dose that reaches the circulation, judged against a reference dose that is usually intravenous. What is called IC50 is the concentration at which inhibition is half-maximal.

The target of data set [1] is T1, SmBiT-CRBN+LgBiT-TEAD1 (Homo sapiens, UniProt P28347+Q96SW2).
T1 construct: ternary complex formation between CRBN (41‐442) and TEAD1‐YBD (208‐424) in HEK293T cells; expressed in transfected cells; host or cells: HEK293T (transient co-transfection)
T1 sequence (Q96SW2 41-442): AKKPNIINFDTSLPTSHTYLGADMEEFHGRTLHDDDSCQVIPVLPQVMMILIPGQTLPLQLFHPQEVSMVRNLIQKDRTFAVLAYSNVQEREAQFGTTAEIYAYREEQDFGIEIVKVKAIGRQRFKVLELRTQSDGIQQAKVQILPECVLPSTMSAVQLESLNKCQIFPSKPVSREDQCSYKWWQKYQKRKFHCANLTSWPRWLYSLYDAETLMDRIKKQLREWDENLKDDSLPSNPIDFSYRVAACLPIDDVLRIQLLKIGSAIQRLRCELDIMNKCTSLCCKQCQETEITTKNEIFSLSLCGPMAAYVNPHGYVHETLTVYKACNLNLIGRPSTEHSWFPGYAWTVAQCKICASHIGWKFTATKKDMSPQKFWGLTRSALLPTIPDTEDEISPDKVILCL
T1 sequence (P28347 208-424): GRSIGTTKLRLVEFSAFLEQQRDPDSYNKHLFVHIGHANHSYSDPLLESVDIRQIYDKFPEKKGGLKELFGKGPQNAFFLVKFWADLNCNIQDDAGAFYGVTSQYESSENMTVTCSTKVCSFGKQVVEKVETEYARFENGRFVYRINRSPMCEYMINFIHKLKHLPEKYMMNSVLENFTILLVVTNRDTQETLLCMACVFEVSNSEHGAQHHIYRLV
Briefly: NanoBiT recruitment assay (ternary complex formation) in HEK293T cells. It is filed as cell-based. The conditions noted are these: 3 h. The procedure:
CRBN was cloned into the SmBiT Flexi vector pFN35K (Promega), while TEAD1 was cloned into the Promega LgBiT Flexi vector pFN33K (Promega). A total of 8 µg of plasmid DNA, consisting of 2 µg of SmBiT‐CRBN plasmid and 6 µg of LgBiT‐TEAD1 plasmid, was mixed with 24 µL of the liposome transfection reagent Lipo2000 (Meilunbio, #MA0672), added to 300 µL of Opti‐MEM Reduced Serum medium (Meilunbio, #PWL042), and incubated for 20 min at room temperature. The resulting mixture was then added to 3 mL of HEK293T cell suspension at a density of 1 × 10^6 cells mL^−1 in DMEM medium containing 1% FBS, mixed thoroughly, and 18.4 µL of the mixture was transferred to each well of a white 384‐well plate (Corning, #3570), followed by incubation for 24 h. Subsequently, 2.5 µL of MLN4924 (MCE, #HY‐70062) was added to reach a final concentration of 1 µM, and the cells were incubated for an additional 4 h. Next, 3 µL of compound KG‐FP‐003 at the indicated concentrations was added, and incubation continued for 3 more hours. Afterward, a mixture of Nano‐Glo Live Cell Substrate and Nano‐Glo LCS Dilution Buffer (Promega, #N2011) was added to the 384‐well plates at 6 µL per well and incubated for 20 min at room temperature. Finally, the luminescence signal was measured using an Envision plate reader (Revvity), and the data were analyzed using GraphPad Prism 9.5 software.

The target of data set [2] is T2, TEAD3 (Homo sapiens, UniProt Q99594).
T2 construct: endogenous in cells; host or cells: HEK293T HiBiT knock-in
T2 sequence (Q99594 whole entry): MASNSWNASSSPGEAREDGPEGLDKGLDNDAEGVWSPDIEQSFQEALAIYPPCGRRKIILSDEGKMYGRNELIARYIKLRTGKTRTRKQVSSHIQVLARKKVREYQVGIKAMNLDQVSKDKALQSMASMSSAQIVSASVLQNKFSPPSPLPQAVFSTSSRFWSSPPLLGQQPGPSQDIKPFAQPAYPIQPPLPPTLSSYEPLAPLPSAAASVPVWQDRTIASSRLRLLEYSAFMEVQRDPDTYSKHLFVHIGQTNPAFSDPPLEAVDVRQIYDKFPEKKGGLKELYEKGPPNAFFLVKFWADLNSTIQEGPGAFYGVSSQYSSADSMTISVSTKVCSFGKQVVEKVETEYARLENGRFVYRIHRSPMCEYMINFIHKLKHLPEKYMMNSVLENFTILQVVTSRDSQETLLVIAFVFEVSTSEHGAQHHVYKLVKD
Briefly: HiBiT degradation assay, HEK293T HiBiT-TEAD3. It is filed as cell-based. The settings on record: 6 h. On the procedure: (§1) HiBiT cells were inoculated into 96‐well flat‐bottomed tissue culture plates at a density of 50 000 cells per well, followed by adding degraders into the wells using the I‐DOT dispenser. After 6 h of incubation, the cells were lysed and assayed for degradation using the Nano‐Glo HiBiT Lysis Assay System (Promega, #N3030). Luminescence signals were read using an Envision plate reader (Revvity) and the data were analyzed using GraphPad Prism 9.5 software.
(§2) The ribonucleoprotein (RNP) complex was prepared by mixing 2 µg of NLS‐Cas9‐EGFP nuclease (Novoprotein, #E379‐01A), 50 pmol of sgRNA, 10 µL of electrotransfer solution, and 50 pmol of designed donor DNA, then incubated for 10 min at room temperature. One million HEK293T cells were resuspended in 10 µL of electrotransfection solution and mixed with 10 µL of the RNP complex. Electroporation was performed using a Celetrix SP100 electroporator at 480 V. After electroporation, the cells were transferred to antibiotic‐free DMEM complete medium for overnight culture. The following day, EGFP‐positive cells were sorted using a Sony MA 900 cell sorter, plated in a 96‐well cell culture plate (Servicebio, #CCP‐96H), and cultured for 4 weeks. After this period, positive clones were screened using the Nano‐Glo HiBiT Lytic Detection system (Promega, #N3030).
On the technique in general: With HiBiT, luminescence reflects the tagged protein that the partner subunit can reach.

Data set [3] concerns the target T3, TEAD4 (Homo sapiens, UniProt Q15561).
T3 construct: endogenous in cells; host or cells: HEK293T HiBiT knock-in
The data set is described as follows: HiBiT degradation assay, HEK293T HiBiT-TEAD4. The conditions noted are these: 6 h. The class given is cell-based. On the procedure:
as §1, §2

The subject of data set [4] is IKZF1-3, GSPT1. The data set is described as follows: HiBiT off-target assessment (IMiD substrates). The class given is cell-based. The conditions noted are these: HiBiT-tagged cell lines, 6 h. The procedure: as §1
A short description of data set [5]: Pharmacokinetic evaluation in ICR male mice. It is filed as in vivo. The settings on record: mouse, plasma.
The target of data set [6] is CRBN-DDB1 (Homo sapiens, UniProt Q96SW2). The data set is described as follows: CRBN binding assay, biochemical (HTRF). The conditions noted are these: recombinant CRBN-DDB1, 1 h, read-out: Biochemical CRBN Binary Binding IC50 (nM ± SD). On the procedure: Next, 400 nL of compound solution (initial concentration 10 µM, followed by a three‐fold gradient dilution) was dispensed into the wells using the positive‐pressure‐based I‐DOT dispenser. After 1 h of incubation at room temperature, the HTRF signal was measured using an Envision plate reader (Revvity). Finally, the data were analyzed using non‐linear regression curves in GraphPad Prism 9.5 software.
CRBN-DDB1, sequence (Q96SW2 whole entry): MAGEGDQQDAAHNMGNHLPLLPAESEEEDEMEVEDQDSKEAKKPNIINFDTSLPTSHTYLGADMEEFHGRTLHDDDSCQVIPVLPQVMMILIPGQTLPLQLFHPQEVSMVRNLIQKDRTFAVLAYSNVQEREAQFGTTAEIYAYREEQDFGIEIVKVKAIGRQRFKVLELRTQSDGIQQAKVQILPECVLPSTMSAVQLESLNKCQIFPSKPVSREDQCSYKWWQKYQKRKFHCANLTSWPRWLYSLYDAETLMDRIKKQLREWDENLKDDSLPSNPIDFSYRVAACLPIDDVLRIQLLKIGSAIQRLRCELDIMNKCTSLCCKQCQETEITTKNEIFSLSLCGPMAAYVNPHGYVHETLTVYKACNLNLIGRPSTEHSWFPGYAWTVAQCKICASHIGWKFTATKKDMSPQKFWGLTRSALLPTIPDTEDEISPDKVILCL

Data set [7] deals with MSTO-211H xenograft. Briefly: MSTO-211H xenograft pharmacodynamic study (3 mg/kg i.p.). The class given is in vivo, BALB/c nude mice. The conditions noted are these: 3 mg/kg i.p. q.d. 21 days. The procedure: Animal experiments were conducted by Medsyin (Shanghai) Co., Ltd. The experimental protocol was approved by the IACUC of the company (No.: PZWH20240527‐1) and strictly adhered to the guidelines of AAALAC. The specific procedures are as follows: 5 × 10^6 MSTO‐211H cells were suspended in 100 µL of a mixture of PBS and Matrigel and inoculated subcutaneously into the right axilla of 6‐week‐old BALB/c nude mice. Drug administration was initiated on day 7 after cell inoculation (when the average tumor volume was ≈150 mm^3). The experiment was divided into two groups: one group served as the control group, and the other group received drug administration via intraperitoneal injection at a dose of 3 mg kg^−1 (6 mice in each group), once a day for 21 consecutive days. During the experiment, the body weight and tumor volume of the mice were measured twice a week. At the end of the experiment, the mice were sacrificed and tumor tissues were collected.

T3 sequence (Q15561 whole entry): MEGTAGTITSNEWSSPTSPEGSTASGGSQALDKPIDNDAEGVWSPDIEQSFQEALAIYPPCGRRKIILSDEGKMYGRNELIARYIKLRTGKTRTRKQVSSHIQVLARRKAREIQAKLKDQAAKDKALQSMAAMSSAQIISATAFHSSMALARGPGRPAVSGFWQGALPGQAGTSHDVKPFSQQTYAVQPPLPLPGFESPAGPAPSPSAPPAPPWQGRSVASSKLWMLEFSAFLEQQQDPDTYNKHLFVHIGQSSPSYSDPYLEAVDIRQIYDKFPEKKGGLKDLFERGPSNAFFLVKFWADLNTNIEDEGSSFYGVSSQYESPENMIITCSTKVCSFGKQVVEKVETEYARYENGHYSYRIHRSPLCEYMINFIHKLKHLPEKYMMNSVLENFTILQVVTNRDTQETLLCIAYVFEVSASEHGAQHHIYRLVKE

Take `CNC(=O)c1cc2c(c(F)c1-c1c(Cl)c(F)cc3c1C[C@@](CN[C@H]1CC[C@H](C(=O)N4CCC(CC5CCN(C(=O)COc6ccc(N7CCC(=O)NC7=O)c(C)c6)CC5)CC4)CC1)(c1ccccc1)O3)[C@@H](O)[C@@H](C)C2` [KG-FP-003]: it took 8 ± 4 nM to reach a half-maximal effect in data set [1] (EC50). For the same compound, in data set [2], half-maximal degradation (DC50) was put at 12 ± 5 nM and the “TEAD3 Dmax” value is “≈ 90%”. The compound further returned a maximal degradation (Dmax) in data set [2] (HEK-293T) of 87 ± 9%. In data set [3], half-maximal degradation (DC50) was put at 7 ± 5 nM and the “TEAD4 Dmax” value was “≈ 90%”. Moreover, the Dmax in data set [3] (HEK-293T) is 88 ± 6%. Also, the “Off-target degradation of IMiD substrates IKZF1-3 and GSPT1” value in data set [4] is reported as “no off‐target degradation was detected”. Besides, in data set [5] (IP 5 mg/kg), the area under the curve AUC(0-inf) was determined as 2610 ng·h/mL, the exposure AUC(0-t) was found to be 2560 ng·h/mL, the highest level (Cmax) was 2010 ng/mL and the mean residence time MRT inf came to 3.13 h. In data set [5] (IP 5 mg/kg), the Tmax is 0.42 h and the half-life is 5.42 h. Further, in data set [5] (IP 5 mg/kg, read-out: F% (bioavailability)), the bioavailability turned out to be 99%. In data set [5] (IV 2 mg/kg), this compound showed an area under the curve AUC(0-inf) of 1060 ng·h/mL, an exposure AUC(0-t) of 1040 ng·h/mL, a Cmax of 4430 ng/mL and a mean residence time MRT inf of 1.4 h. Also, in data set [5] (IV 2 mg/kg), the time to peak (Tmax) stood at 0 h and the half-life is 3.57 h. Further, the IC50 in data set [6] is 591 ± 21 nM. In addition, in data set [7], the “TEAD1 protein degradation in tumor” value was “pronounced degradation of TEAD1 protein” and the “Tumor growth inhibition versus vehicle” value is recorded as “significant tumor growth inhibition”.
